Earlier results on one molecule are cited in patent US20090035370A1, “DOSAGE FORM AND METHOD OF USE” (DRUGTECH CORPORATION, priority 2007, published 2009).

Each structure is given as a SMILES string. Read-outs that look alike come from different tables or passages of the source.

The conditions of data set [1]: administered orally.
For data set [2], the target named is T1, D2 receptor (Homo sapiens, UniProt P14416). Conditions: patients receiving 300-600 mg/day.
Data set [3] deals with T1, D2 receptor. The settings on record: PET.
Data set [4] deals with T1, D2 receptor.

T1 sequence (P14416 whole entry): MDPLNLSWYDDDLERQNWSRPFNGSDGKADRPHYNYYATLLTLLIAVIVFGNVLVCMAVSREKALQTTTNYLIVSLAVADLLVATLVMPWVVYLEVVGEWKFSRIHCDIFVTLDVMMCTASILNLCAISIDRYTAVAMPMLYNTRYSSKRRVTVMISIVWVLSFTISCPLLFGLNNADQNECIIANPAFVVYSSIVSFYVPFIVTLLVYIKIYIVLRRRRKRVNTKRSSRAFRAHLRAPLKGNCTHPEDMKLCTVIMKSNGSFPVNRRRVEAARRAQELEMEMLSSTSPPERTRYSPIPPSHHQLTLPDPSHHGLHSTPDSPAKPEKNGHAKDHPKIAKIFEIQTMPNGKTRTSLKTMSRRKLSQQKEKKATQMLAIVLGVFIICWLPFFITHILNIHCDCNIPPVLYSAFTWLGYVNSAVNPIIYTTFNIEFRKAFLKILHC

`OCCOCCN1CCN(C2=Nc3ccccc3Sc3ccccc32)CC1` [Quetiapine]: the antipsychotic efficacy result (Kapur et al. 2000) is given as “effective antipsychotic”. In addition, the response to treatment result (patients with a first episode of schizophrenia, single daily dose) is reported as “responded to treatment”. In data set [1], the “time to peak plasma level” value is not above 1.5 h. Moreover, the D2 occupancy result is “less than 20%” in data set [2] (12 hours after receiving a dose); approximately 60% in data set [2] (at 2 hours); 58-62% in data set [3] (2 to 3 hours after a single dose); 0-27% in data set [3] (12 hours after the last dose); 58-64% in data set [4] (2-3 hours after a dose); 0-27% in data set [4] (by the end of a 12-hour dosing interval).
